PMC2576352, “The V1-V3 region of a brain-derived HIV-1 envelope glycoprotein determines macrophage tropism, low CD4 dependence, increased fusogenicity and altered sensitivity to entry inhibitors” (Retrovirology, 2008)
Peptide text beside a SMILES is read from it.

Columns and labels:
[1] = test system: HxB Env pseudotype; assay: Inhibition of pseudotype infection by entry/fusion inhibitors, HxB Env; format: cell-based, HIV-1; conditions: inhibitor + virus 5–6 h at 37°C, luciferase at 2–3 days, non-linear regression, 95% confidence limits in parentheses
Method: (§1) To produce Env-pseudotyped, luciferase-reporter viruses, 293T cells were co-transfected using calcium phosphate precipitation (ProFection Mammalian Transfection System, Promega, Madison, WI) with each Env expression vector and with the Env-deficient, pNL4-3-luc^+env^- provirus, developed by N. Landau by introducing a frameshift mutation in the env gene of pNL4-3-luc^+ [87]. Culture supernatants containing the pseudotyped particles were collected 48–72 hours after transfection, clarified by centrifugation, aliquoted and stored at -80°C until use. Pseudotype particles lacking envelope glycoproteins, which are generated by co-transfecting the luciferase HIV-1 pro-viral backbone with an empty expression vector, are used as negative control for all pseudotype infections. Pseudotype stocks were quantitated using a p24^gag antigen capture ELISA (SAIC-National Cancer Institute) and normalized amounts of stocks were used to infect target cells for 5–6 hours at 37°C. At 2–3 days post-infection, the cells were washed with PBS and lysed, and the amount of entry mediated by each Env was measured by detecting luciferase activity (Luciferase Assay System, Promega) in a microplate luminometer (GloMax, Promega), following manufacturer's instructions. Results are obtained as relative light units (RLU) per second. […]

[2] = test system: Br (brain-derived) Env pseudotype; format: cell-based, HIV-1; conditions: HOS-CD4-CCR5 cells, inhibitor + virus 5–6 h at 37°C, luciferase at 2–3 days, non-linear regression, 95% confidence limits in parentheses
Method: (§2) To produce Env-pseudotyped, luciferase-reporter viruses, 293T cells were co-transfected using calcium phosphate precipitation (ProFection Mammalian Transfection System, Promega, Madison, WI) with each Env expression vector and with the Env-deficient, pNL4-3-luc^+env^- provirus, developed by N. Landau by introducing a frameshift mutation in the env gene of pNL4-3-luc^+ [87]. Culture supernatants containing the pseudotyped particles were collected 48–72 hours after transfection, clarified by centrifugation, aliquoted and stored at -80°C until use. Pseudotype particles lacking envelope glycoproteins, which are generated by co-transfecting the luciferase HIV-1 pro-viral backbone with an empty expression vector, are used as negative control for all pseudotype infections. Pseudotype stocks were quantitated using a p24^gag antigen capture ELISA (SAIC-National Cancer Institute) and normalized amounts of stocks were used to infect target cells for 5–6 hours at 37°C. At 2–3 days post-infection, the cells were washed with PBS and lysed, and the amount of entry mediated by each Env was measured by detecting luciferase activity (Luciferase Assay System, Promega) in a microplate luminometer (GloMax, Promega), following manufacturer's instructions. Results are obtained as relative light units (RLU) per second. At least three independent experiments were performed for each analysis described below, with 2–8 replicates within each experiment.
(§3) To test for sensitivity to fusion inhibitors, BMS-378806 and HNG-105, the medium from HOS-CD4-CCR5 cells plated in 96-well plates 24 hours before infection, was removed and replaced by fresh medium containing 2× the final concentration of the corresponding inhibitor, and immediately the same volume of viral stocks was added. After 5–6 hours at 37°C, inocula and inhibitors were removed and the cells were incubated for 2–3 days before evaluating the amount of infection.
(§4) Inhibition curves obtained by plotting the relative infection (expressed as a percent of untreated) versus the concentration of the inhibitor were analyzed by non-linear regression with a sigmoidal dose-response model (variable slopes) using GraphPad Prism software, version 4.02 (GraphPad Software, San Diego, CA); this analysis uses a four parameter logistic equation, Y = Bottom + (Top-Bottom)/( 1+10^((log10IC50−X)⋅Slope) ) where Y is the response, Bottom is 0 and Top is 100, X is the logarithm of the concentration, and Slope is the slope of the curve. 50% inhibitory concentrations (IC50) and 95% confidence intervals were estimated from the non-linear regression analysis. Fusogenicity data were analyzed by non-linear regression with a one-phase exponential model (using GraphPad Prism) that uses the equation Y=Ymax(1-e^(-kX)), where Ymax is the maximum response and k is the observed rate. CD4 dependence data were analyzed with SPSS, version 16, using the non-parametric Mann-Whitney test.

[3] = test system: SB chimeric Env (spleen gp120-brain gp41) pseudotype; format: cell-based, HIV-1; conditions: HOS-CD4-CCR5 cells, inhibitor + virus 5–6 h at 37°C, luciferase at 2–3 days, non-linear regression, 95% confidence limits in parentheses
Method: as §2, §3, §4

[4] = test system: Br(N283T) mutant Env pseudotype; format: cell-based, HIV-1; conditions: HOS-CD4-CCR5 cells, inhibitor + virus 5–6 h at 37°C, luciferase at 2–3 days, non-linear regression, 95% confidence limits in parentheses
Method: as §2, §3, §4

[5] = test system: Bv1v3 chimeric Env pseudotype; format: cell-based, HIV-1; conditions: HOS-CD4-CCR5 cells, inhibitor + virus 5–6 h at 37°C, luciferase at 2–3 days, non-linear regression, 95% confidence limits in parentheses
Method: as §2, §3, §4

[6] = test system: BaL Env pseudotype; format: cell-based, HIV-1; conditions: HOS-CD4-CCR5 cells, inhibitor + virus 5–6 h at 37°C, luciferase at 2–3 days, non-linear regression, 95% confidence limits in parentheses
Method: as §2, §3, §4

[7] = test system: DS17 Env pseudotype; format: cell-based, HIV-1; conditions: HOS-CD4-CCR5 cells, inhibitor + virus 5–6 h at 37°C, luciferase at 2–3 days, non-linear regression, 95% confidence limits in parentheses
Method: as §2, §3, §4

[8] = test system: DS17(N283T) mutant Env pseudotype; format: cell-based, HIV-1; conditions: HOS-CD4-CCR5 cells, inhibitor + virus 5–6 h at 37°C, luciferase at 2–3 days, non-linear regression, 95% confidence limits in parentheses
Method: as §2, §3, §4

[9] = test system: Spl (spleen-derived) Env pseudotype; format: cell-based, HIV-1; conditions: HOS-CD4-CCR5 cells, inhibitor + virus 5–6 h at 37°C, luciferase at 2–3 days, non-linear regression, 95% confidence limits in parentheses
Method: as §2, §3, §4

[10] = test system: Bv1v2 chimeric Env pseudotype; format: cell-based, HIV-1; conditions: HOS-CD4-CCR5 cells, inhibitor + virus 5–6 h at 37°C, luciferase at 2–3 days, non-linear regression, 95% confidence limits in parentheses
Method: as §2, §3, §4

[11] = test system: BS chimeric Env (brain gp120-spleen gp41) pseudotype; format: cell-based, HIV-1; conditions: HOS-CD4-CCR5 cells, inhibitor + virus 5–6 h at 37°C, luciferase at 2–3 days, non-linear regression, 95% confidence limits in parentheses
Method: as §2, §3, §4

[12] = test system: pseudotypes containing wild-type, chimeric and mutant Env; assay: Inhibition of pseudotype infection by entry/fusion inhibitors, Env panel; format: cell-based, HIV-1
Method: as §1
as §4, with “50% inhibitory concentrations (IC50) and 95% confidence intervals were estimated from the non-linear regression analysis.” left out, “CD4 dependence data were analyzed with SPSS, version 16, using the non-parametric Mann-Whitney test.” left out

[13] = test system: Spl(T283N) mutant Env pseudotype; assay: Inhibition of pseudotype infection by entry/fusion inhibitors, Spl(T283N) Env; format: cell-based, HIV-1; conditions: HOS-CD4-CCR5 cells, inhibitor + virus 5–6 h at 37°C, luciferase at 2–3 days, non-linear regression, 95% confidence limits in parentheses
Method: as §1

[14] = test system: Sv1v2 chimeric Env pseudotype; assay: Inhibition of pseudotype infection by entry/fusion inhibitors, Sv1v2 Env; format: cell-based, HIV-1; conditions: HOS-CD4-CCR5 cells, inhibitor + virus 5–6 h at 37°C, luciferase at 2–3 days, non-linear regression, 95% confidence limits in parentheses
Method: as §1

[15] = test system: Sv1v3 chimeric Env pseudotype; assay: Inhibition of pseudotype infection by entry/fusion inhibitors, Sv1v3 Env; format: cell-based, HIV-1; conditions: HOS-CD4-CCR5 cells, inhibitor + virus 5–6 h at 37°C, luciferase at 2–3 days, non-linear regression, 95% confidence limits in parentheses
Method: as §1

[16] = test system: macrophage-tropic Env; conditions: Peters et al.; cited from earlier work
Text: Therefore, low CD4 dependence seems to correlate not only with fusogenicity and with the sensitivity to fusion and other entry inhibitors, but also with the macrophage tropism of Env. This is in agreement with recent work by Thomas et al. reporting that Env conferring macrophage tropism display low CD4 dependence and higher efficiency of fusion.

Structure (SMILES)	IC50 [1]	IC50 [2]	IC50 [3]	IC50 [4]	IC50 [5]	IC50 [6]	IC50 [7]	IC50 [8]	IC50 [9]	IC50 [10]	IC50 [11]	sensitivity of pseudotypes to inhibitor ([12]; BR, BR(N283T), BS and Bv1v3 Env vs SPL, SPL(T283N), SB, Sv1v3 or Sv1v2)	sensitivity of pseudotypes to inhibitor ([12]; DS17 and DS17(N283T) Env vs BR and Env with related phenotype)	IC50 [13]	IC50 [14]	IC50 [15]	relation of inhibitor sensitivity to macrophage tropism [16]
COc1ccnc2[nH]cc(C(=O)C(=O)N3CCN(C(=O)c4ccccc4)C[C@H]3C)c12 [BMS-378806]	3.9 nM	15 nM	2 nM	13 nM	8.2 nM	29 nM	41 nM	32 nM	1.8 nM	4.8 nM	20 nM	significantly less sensitive to inhibition by BMS-378806	reduced sensitivity to BMS-378806 as compared to the BR	0.9 nM	1.2 nM	0.9 nM	correlated with increasing macrophage tropism
CC[C@H](C)[C@H](NC(=O)[C@H](CCC(N)=O)NC(=O)[C@H](C)NC(=O)[C@H](CCC(N)=O)NC(=O)[C@H](CCC(=O)O)NC(=O)[C@H](CC(C)C)NC(=O)[C@H](CC(C)C)NC(=O)[C@H](C)NC(=O)[C@@H](NC(=O)[C@@H](NC(=O)[C@H](CCCCN)NC(=O)[C@H](CCC(N)=O)NC(=O)[C@H](CCC(=O)O)NC(=O)[C@H](Cc1c[nH]c2ccccc12)NC(=O)[C@H](CCC(=O)O)NC(=O)[C@H](CCC(N)=O)NC(=O)[C@@H](N)Cc1c[nH]c2ccccc12)[C@@H](C)CC)[C@@H](C)O)C(=O)N[C@@H](CCC(N)=O)C(=O)N[C@@H](CCC(N)=O)C(=O)N[C@@H](CCC(=O)O)C(=O)N[C@@H](CCSC)C(=O)N[C@@H](CC(N)=O)C(=O)N[C@@H](CCC(=O)O)C(=O)N[C@@H](CCC(N)=O)C(=O)N[C@@H](CCC(=O)O)C(=O)N[C@@H](CC(C)C)C(=O)N[C@@H](CCC(N)=O)C(=O)N[C@@H](CCCCN)C(=O)N[C@@H](CC(C)C)C(=O)N[C@@H](CC(=O)O)C(=O)N[C@H](C(=O)N[C@@H](Cc1c[nH]c2ccccc12)C(=O)N[C@@H](C)C(=O)N[C@@H](CO)C(=O)N[C@@H](CC(C)C)C(=O)N[C@@H](Cc1c[nH]c2ccccc12)C(=O)N[C@@H](CCC(=O)O)C(=O)N[C@@H](Cc1c[nH]c2ccccc12)C(=O)N[C@@H](Cc1ccccc1)C(=O)O)[C@@H](C)O [T-1249-BR] (H-WQEWEQKITALLEQAQIQQEMNEQELQKLDTWASLWEWF-OH)	–	195 nM	41 nM	221 nM	245 nM	124 nM	92 nM	104 nM	27 nM	155 nM	155 nM	–	–	–	–	–	–
CC[C@H](C)[C@H](NC(=O)[C@H](CCC(N)=O)NC(=O)[C@H](C)NC(=O)[C@H](CCC(N)=O)NC(=O)[C@H](CCC(=O)O)NC(=O)[C@H](CC(C)C)NC(=O)[C@H](CC(C)C)NC(=O)[C@H](C)NC(=O)[C@@H](NC(=O)[C@@H](NC(=O)[C@H](CCCCN)NC(=O)[C@H](CCC(N)=O)NC(=O)[C@H](CCC(=O)O)NC(=O)[C@H](Cc1c[nH]c2ccccc12)NC(=O)[C@H](CCC(=O)O)NC(=O)[C@H](CCC(N)=O)NC(=O)[C@@H](N)Cc1c[nH]c2ccccc12)[C@@H](C)CC)[C@@H](C)O)C(=O)N[C@@H](CCC(N)=O)C(=O)N[C@@H](CCC(N)=O)C(=O)N[C@@H](CCC(=O)O)C(=O)N[C@@H](CCCCN)C(=O)N[C@@H](CC(N)=O)C(=O)N[C@@H](CCC(=O)O)C(=O)N[C@@H](Cc1ccc(O)cc1)C(=O)N[C@@H](CCC(=O)O)C(=O)N[C@@H](CC(C)C)C(=O)N[C@@H](CCC(N)=O)C(=O)N[C@@H](CCCCN)C(=O)N[C@@H](CC(C)C)C(=O)N[C@@H](CC(=O)O)C(=O)N[C@@H](CCCCN)C(=O)N[C@@H](Cc1c[nH]c2ccccc12)C(=O)N[C@@H](C)C(=O)N[C@@H](CO)C(=O)N[C@@H](CC(C)C)C(=O)N[C@@H](Cc1c[nH]c2ccccc12)C(=O)N[C@@H](CCC(=O)O)C(=O)N[C@@H](Cc1c[nH]c2ccccc12)C(=O)N[C@@H](Cc1ccccc1)C(=O)O [T-1249]	–	173 nM	83 nM	166 nM	227 nM	102 nM	210 nM	155 nM	37 nM	224 nM	140 nM	–	–	–	–	–	–
